Assay results reported in patent publication US9796742B2, “Kinase inhibitors” (Respivert Limited, priority 2012, dated 2017).
pIC50: −log10 of the molar value. Read-outs that look alike come from different tables or passages of the source.

Experiments:
[1] = molecular target: Syk (Homo sapiens (Human), UniProt P43405); assay: Syk enzyme inhibition (FRET, Z-LYTE); format: biochemical
Experimental: (§1) The enzyme inhibitory activities of compounds disclosed herein are determined by FRET using synthetic peptides labelled with both donor and acceptor fluorophores (Z-LYTE, Invitrogen Ltd., Paisley, UK).
(§2) The inhibitory activities of compounds of the invention against c-Src and Syk enzymes (Invitrogen), are evaluated in a similar fashion to that described hereinabove. The relevant enzyme (3000 ng/mL or 2000 ng/mL respectively, 2.5 μL) is incubated with the test compound (either 4 μg/mL, 0.4 μg/mL, 0.04 μg/mL, or 0.004 μg/mL, 2.5 μL each) for 2 hr at RT. The FRET peptides (8 μM. 2.5 μL), and appropriate ATP solutions (2.5 μL, 800 μM for c-Src, and 60 μM ATP for Syk) are then added to the enzymes/compound mixtures and incubated for 1 hr. Development reagent (protease, 5 μL) is added for 1 hr prior to detection in a fluorescence microplate reader (Varioskan® Flash, ThermoFisher Scientific).
(§3) In all cases, the site-specific protease cleaves non-phosphorylated peptide only and eliminates the FRET signal. Phosphorylation levels of each reaction are calculated using the ratio of coumarin emission (donor) over fluorescein emission (acceptor), for which high ratios indicate high phosphorylation and low ratios indicate low phosphorylation levels. The percentage inhibition of each reaction is calculated relative to non-inhibited control and the 50% inhibitory concentration (IC50 value) is then calculated from the concentration-response curve.

[2] = test system: PBMCs; assay: LPS-induced TNFα/IL-8 release in PBMC cells; format: cell-based; settings: Homo sapiens, LPS-stimulated PBMCs
Experimental: Peripheral blood mononuclear cells (PBMCs) from healthy subjects are separated from whole blood using a density gradient (Lymphoprep, Axis-Shield Healthcare). The PBMCs are seeded in 96 well plates and treated with compounds at the desired concentration for 2 hours before addition of 1 ng/mL LPS (Escherichia Coli 0111:B4 from Sigma Aldrich) for 24 hours under normal tissue culture conditions (37° C., 5% CO2). The supernatant is harvested for determination of IL-8 and TNFα concentrations by sandwich ELISA (Duo-set, R&D systems) and read on the fluorescence microplate reader (Varioskan® Flash, ThermoFisher Scientific). The concentration at 50% inhibition (IC50) of IL-8 and TNFα production is calculated from the dose response curve.

[3] = molecular target: GSK3α (Homo sapiens (Human), UniProt P49840); assay: GSK 3α enzyme inhibition (FRET, Z-LYTE; Method 2); format: biochemical
Experimental: as §1
The inhibitory activities of compounds of the invention against the GSK 3α enzyme isoform (Invitrogen), are evaluated by determining the level of activation/phosphorylation of the target peptide. The GSK3-α protein (500 ng/mL, 2.5 μL) is mixed with the test compound (2.5 μL at either 4 μg/mL, 0.4 μg/mL, 0.04 μg/mL, or 0.004 μg/mL) for 2 hr at RT. The FRET peptide (8 μM, 2.5 μL), which is a phosphorylation target for GSK3α, and ATP (40 μM, 2.5 μL) are then added to the enzyme/compound mixture and the resulting mixture incubated for 1 hr. Development reagent (protease, 5 μL) is added for 1 hr prior to detection in a fluorescence microplate reader (Varioskan® Flash, ThermoFisher Scientific).
as §3
This method follows the same steps as Method 1 above, but utilises a shorter period of mixing of the test compound (105 minutes instead of 2 hours) with the GSK3-α protein.

[4] = molecular target: c-Src (Homo sapiens (Human), UniProt P12931); assay: c-Src enzyme inhibition (FRET, Z-LYTE); format: biochemical
Experimental: as §1, §2, §3

[5] = molecular target: p38 MAPKα (Homo sapiens (Human), UniProt Q16539); assay: p38 MAPKα enzyme inhibition (FRET, Z-LYTE; Method 2); format: biochemical
Experimental: as §1
The inhibitory activities of test compounds against the p38 MAPKα isoform (MAPK14: Invitrogen), are evaluated indirectly by determining the level of activation/phosphorylation of the down-stream molecule, MAPKAP-K2. The p38 MAPKα protein (80 ng/mL, 2.5 μL) is mixed with the test compound (2.5 μL of either 4 μg/mL, 0.4 μg/mL, 0.04 μg/mL or 0.004 μg/mL) for 2 hr at RT. […] The mixture is incubated for 1 hr at RT. Development reagent (protease, 5 μL) is added for 1 hr prior to detection in a fluorescence microplate reader (Varioskan® Flash, ThermoFisher Scientific).
Method 2 This method follows the same steps as Method 1 above, but utilises a higher concentration of the p38 MAPKα protein (2.5 μL of 200 ng/mL protein instead of 2.5 μL of 80 ng/mL protein) for mixing with the test compound.
as §3

[6] = IL-8, read-out: IC50 Values for Inhibition of Cytokine Release, PBMCs IL-8
[7] = TNFα, read-out: IC50 Values for Inhibition of Cytokine Release, PBMCs TNFα

Sequence of c-Src (P12931 whole entry, looked up): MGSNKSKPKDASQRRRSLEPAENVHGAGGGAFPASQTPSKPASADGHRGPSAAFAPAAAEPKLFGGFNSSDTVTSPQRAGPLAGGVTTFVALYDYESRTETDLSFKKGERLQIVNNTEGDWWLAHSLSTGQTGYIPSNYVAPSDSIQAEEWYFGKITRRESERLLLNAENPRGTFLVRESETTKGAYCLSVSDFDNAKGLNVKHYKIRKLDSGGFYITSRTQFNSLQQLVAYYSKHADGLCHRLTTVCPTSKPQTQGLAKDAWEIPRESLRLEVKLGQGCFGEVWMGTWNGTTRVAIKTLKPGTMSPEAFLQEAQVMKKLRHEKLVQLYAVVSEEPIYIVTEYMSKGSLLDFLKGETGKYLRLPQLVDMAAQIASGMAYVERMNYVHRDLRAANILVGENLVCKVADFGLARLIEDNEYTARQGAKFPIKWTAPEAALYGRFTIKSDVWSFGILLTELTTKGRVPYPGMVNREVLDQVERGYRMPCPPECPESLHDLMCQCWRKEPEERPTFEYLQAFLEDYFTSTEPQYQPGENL
Sequence of GSK3α (P49840 whole entry): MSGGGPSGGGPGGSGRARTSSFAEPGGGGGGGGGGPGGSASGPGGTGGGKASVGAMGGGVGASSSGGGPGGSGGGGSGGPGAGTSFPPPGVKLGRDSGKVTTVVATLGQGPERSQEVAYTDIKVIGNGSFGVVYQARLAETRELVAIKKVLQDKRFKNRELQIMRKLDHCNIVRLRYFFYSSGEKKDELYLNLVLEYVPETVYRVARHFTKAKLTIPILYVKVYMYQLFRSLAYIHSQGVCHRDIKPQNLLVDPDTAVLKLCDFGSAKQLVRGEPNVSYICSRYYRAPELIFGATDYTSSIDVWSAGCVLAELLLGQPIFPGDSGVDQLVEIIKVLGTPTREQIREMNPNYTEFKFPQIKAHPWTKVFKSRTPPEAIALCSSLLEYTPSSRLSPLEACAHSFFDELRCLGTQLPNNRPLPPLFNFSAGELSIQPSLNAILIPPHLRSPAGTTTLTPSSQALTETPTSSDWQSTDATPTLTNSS
Sequence of p38 MAPKα (Q16539 whole entry): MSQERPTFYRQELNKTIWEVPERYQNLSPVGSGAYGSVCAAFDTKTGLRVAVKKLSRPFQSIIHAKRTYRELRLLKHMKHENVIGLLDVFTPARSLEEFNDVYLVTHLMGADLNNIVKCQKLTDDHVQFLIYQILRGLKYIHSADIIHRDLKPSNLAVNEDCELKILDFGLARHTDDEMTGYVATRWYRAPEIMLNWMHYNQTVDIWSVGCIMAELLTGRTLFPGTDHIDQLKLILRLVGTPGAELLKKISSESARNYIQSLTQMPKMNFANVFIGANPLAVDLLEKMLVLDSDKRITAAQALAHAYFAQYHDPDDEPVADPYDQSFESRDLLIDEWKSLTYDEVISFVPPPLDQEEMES

pIC50 [1]	pIC50 [3]	pIC50 [4]	pIC50 [5]	SMILES	pIC50 [2, 6]	pIC50 [2, 7]
8.05	5.47	8.10	6.80	CCP(=O)(CC)Cc1cccc(-n2nc(C(C)(C)C)cc2NC(=O)Nc2ccc(Oc3ccnc(Nc4cc(C)c5[nH]ncc5c4)n3)c3ccccc23)c1 [Example 36, 1-(3-(tert-Butyl)-1-(3-((diethylphosphoryl)methyl)phenyl)-1H-pyrazol-5-yl)-3-(4-((2-((7-methyl-1H-indazol-5-yl)amino)pyrimidin-4-yl)oxy)naphthalen-1-yl)urea]	8.46	
< 6.00	< 5.00	< 6.00	6.83	CC(C)(C)c1cc(NC(=O)Nc2ccc(Oc3ccnc(Sc4ccccc4)n3)c3ccccc23)n(-c2ccc(P(C)(C)=O)cc2)n1 [Example 29, 1-(3-(tert-Butyl)-1-(4-(dimethylphosphoryl)phenyl)-1H-pyrazol-5-yl)-3-(4-((2-(phenylthio)-pyrimidin-4-yl)oxy)naphthalen-1-yl)urea]	6.82	
8.30	5.31	8.00	7.15	Cc1cc(Nc2nccc(Oc3ccc(NC(=O)Nc4cc(C(C)C)nn4-c4cccc(CP(C)(C)=O)c4)c4ccccc34)n2)cc2cn[nH]c12 [Example 37, 1-(1-(3-((Dimethylphosphoryl)methyl)phenyl)-3-isopropyl-1H-pyrazol-5-yl)-3-(4-((2-((7-methyl-1H-indazol-5-yl)amino)pyrimidin-4-yl)oxy)naphthalen-1-yl)urea]	8.52	
8.70	6.12	9.00	7.36	Cc1cc(Nc2nccc(Oc3ccc(NC(=O)Nc4cc(C(C)(C)C)nn4-c4ccc(P(C)(C)=O)cc4)c4ccccc34)n2)cc2cn[nH]c12 [Example 21, 1-(3-(tert-Butyl)-1-(4-(dimethylphosphoryl)phenyl)-1H-pyrazol-5-yl)-3-(4-((2-((7-methyl-1H-indazol-5-yl)amino)pyrimidin-4-yl)oxy)naphthalen-1-yl)urea]	8.47	
	6.49			CC(C)(C)c1cc(NC(=O)Nc2ccc(Oc3ccnc(Nc4cccc(OCCN5CCOCC5)c4)n3)c3ccccc23)n(-c2cccc(CP(C)(C)=O)c2)n1 [Example 34, 1-(3-(tert-Butyl)-1-(3-((dimethylphosphoryl)methyl)phenyl)-1H-pyrazol-5-yl)-3-(4-((2-((3-(2-morpholinoethoxy)phenyl)amino)pyrimidin-4-yl)oxy)naphthalen-1-yl)urea]	8.96	
	6.68			Cc1cc(Nc2nccc(Oc3ccc(NC(=O)Nc4cc(C(C)(C)C)nn4-c4cccc(P(C)(C)=O)c4)c4ccccc34)n2)cc2cn[nH]c12 [Example 13, 1-(3-(tert-Butyl)-1-(3-(dimethylphosphoryl)phenyl)-1H-pyrazol-5-yl)-3-(4-((2-((7-methyl-1H-indazol-5-yl)amino)pyrimidin-4-yl)oxy)naphthalen-1-yl)urea]	8.47	8.77
	6.77			CC(C)(C)c1cc(NC(=O)Nc2ccc(Oc3ccnc(Nc4ccc(SCCO)cc4)n3)c3ccccc23)n(-c2ccc(P(C)(C)=O)cc2)n1 [Example 18, 1-(3-(tert-Butyl)-1-(4-(dimethylphosphoryl)phenyl)-1H-pyrazol-5-yl)-3-(4-((2-((4-((2-hydroxyethyl)thio)phenyl)amino)pyrimidin-4-yl)oxy)naphthalen-1-yl)urea]	8.14	8.54
	6.01			CC(C)(C)c1cc(NC(=O)Nc2ccc(Oc3ccnc(N4CCC[C@@H]4CO)n3)c3ccccc23)n(-c2ccc(P(C)(C)=O)cc2)n1 [Example 27, (R)-1-(3-(tert-Butyl)-1-(4-(dimethylphosphoryl)phenyl)-1H-pyrazol-5-yl)-3-(4-((2-(2-(hydroxymethyl)pyrrolidin-1-yl)pyrimidin-4-yl)oxy)naphthalen-1-yl)urea]	6.68	
	6.10			C#Cc1cc(Nc2nccc(Oc3ccc(NC(=O)Nc4cc(C(C)C)nn4-c4cccc(CP(C)(C)=O)c4)c4ccccc34)n2)cc(OCCN2CCOCC2)c1 [Example 56, 1-(1-(3-((Dimethylphosphoryl)methyl)phenyl)-3-isopropyl-1H-pyrazol-5-yl)-3-(4-((2-((3-ethynyl-5-(2-morpholinoethoxy)phenyl)amino)pyrimidin-4-yl)oxy)naphthalen-1-yl)urea]	8.77	
	5.05			COc1ccccc1Nc1nccc(Oc2ccc(NC(=O)Nc3cc(C(C)C)nn3-c3cccc(CP(C)(C)=O)c3)c3ccccc23)n1 [Example 40, 1-(1-(3-((dimethylphosphoryl)methyl)phenyl)-3-isopropyl-1H-pyrazol-5-yl)-3-(4-((2-((2-methoxyphenyl)amino)pyrimidin-4-yl)oxy)naphthalen-1-yl)urea]	6.98	
	6.79			CC(C)(C)c1cc(NC(=O)Nc2ccc(Oc3ccnc(Nc4ccc(P(C)(C)=O)cc4)n3)c3ccccc23)n(-c2ccc(P(C)(C)=O)cc2)n1 [Example 25, 1-(3-(tert-Butyl)-1-(4-(dimethylphosphoryl)phenyl)-1H-pyrazol-5-yl)-3-(4-((2-((4-(dimethyl-phosphoryl)phenyl)amino)pyrimidin-4-yl)oxy)naphthalen-1-yl)urea]	7.84	
	7.14			CC(C)(C)c1cc(NC(=O)Nc2ccc(Oc3ccnc(Nc4cccc(C(=O)NCCN5CCOCC5)c4)n3)c3ccccc23)n(-c2cccc(P(C)(C)=O)c2)n1 [Example 16, 3-((4-((4-(3-(3-(tert-Butyl)-1-(3-(dimethylphosphoryl)phenyl)-1H-pyrazol-5-yl)ureido)-naphthalen-1-yl)oxy)pyrimidin-2-yl)amino)-N-(2-morpholinoethyl)benzamide]	8.08	8.37
	5.09			CC(C)(C)c1cc(NC(=O)Nc2ccc(Oc3ccnc(N4CCC[C@H]4CO)n3)c3ccccc23)n(-c2ccc(P(C)(C)=O)cc2)n1 [Example 26, (S)-1-(3-(tert-Butyl)-1-(4-(dimethylphosphoryl)phenyl)-1H-pyrazol-5-yl)-3-(4-((2-(2-(hydroxymethyl)pyrrolidin-1-yl)pyrimidin-4-yl)oxy)naphthalen-1-yl)urea]	6.72	
	6.16			CC(C)(C)c1cc(NC(=O)Nc2ccc(Oc3ccnc(Nc4ccc5[nH]ncc5c4)n3)c3ccccc23)n(-c2cccc(P(C)(C)=O)c2)n1 [Example 10, 1-(4-((2-((1H-Indazol-5-yl)amino)pyrimidin-4-yl)oxy)naphthalen-1-yl)-3-(3-(tert-butyl)-1-(3-(dimethylphosphoryl)phenyl)-1H-pyrazol-5-yl)urea]	7.86	8.40

SMILES	pIC50 [1]	pIC50 [3]	pIC50 [4]	pIC50 [5]	pIC50 [2, 6]	pIC50 [2, 7]
C[Si](C)(C)c1cc(NC(=O)Nc2ccc(Oc3ccnc(Nc4ccccc4)n3)c3ccccc23)n(-c2ccc(P(C)(C)=O)cc2)n1 [Example 5, 1-(1-(4-(Dimethylphosphoryl)phenyl)-3-(trimethylsilyl)-1H-pyrazol-5-yl)-3-(4-((2-(phenyl-amino)pyrimidin-4-yl)oxy)naphthalen-1-yl)urea]		6.37			7.79	8.37
